Measured values: ChEMBL document CHEMBL3832761, “MMV Pathogen Box Bioactivity Data” (2017)
Values after ≈ are worked out from the molar mass of the structure shown. Active and inactive are the calls of the source. The rule behind the calls is not given here.

Columns and labels:
[1] = tested on: HepG2; assay: Cytotoxicity data HepG2 CC20 (uM); type: functional
[2] = tested on: Plasmodium falciparum; assay: Antimalarial activity: Asexual Blood Stage Plasmodium falciparum 3D7 IC50 (uM); type: functional, organism-based
[3] = tested on: Mycobacterium tuberculosis; assay: AntiMycobacterium tuberculosis activity 2-week 7H9/ADC/Tw MIC (uM); type: functional; settings: 336 h
[4] = tested on: Mycobacterium tuberculosis; assay: AntiMycobacterium tuberculosis activity 2-week Alamar Blue 7H9/ADC/Tw MIC (uM); type: functional; settings: 336 h
[5] = tested on: Mycobacterium tuberculosis; assay: AntiMycobacterium tuberculosis activity 1-week 7H9/cholesterol/BSA/Tx MIC (uM); type: functional; settings: 168 h
[6] = tested on: Mycobacterium tuberculosis; assay: (§1) AntiMycobacterium tuberculosis activity day 10 in 7H9/2.5mM butyrate/pH6/0.1mM nitrite MIC90 (uM); type: functional; settings: 240 h
[7] = tested on: Mycobacterium tuberculosis; assay: AntiMycobacterium tuberculosis activity Non-Replicating form: Average MIC90 (uM); type: functional
[8] = tested on: Mycobacterium tuberculosis; assay: AntiMycobacterium tuberculosis activity 2-week Alamar Blue 7H9/cholesterol/BSA/Tx MIC (uM); type: functional; settings: 336 h
[9] = tested on: Mycobacterium tuberculosis; assay: AntiMycobacterium tuberculosis activity 1-week 7H9/ADC/Tw MIC (uM); type: functional; settings: 168 h
[10] = tested on: Mycobacterium tuberculosis; assay: AntiMycobacterium tuberculosis activity day 21 in 7H9/2.5mM butyrate/pH6/0.1mM nitrite MIC90 (uM); type: functional; settings: 504 h
[11] = tested on: Mycobacterium tuberculosis; assay: AntiMycobacterium tuberculosis activity 2-week 7H9/glucose/BSA/Tx MIC (uM); type: functional; settings: 336 h
[12] = tested on: Mycobacterium tuberculosis; assay: AntiMycobacterium tuberculosis activity 1-week 7H9/DPPC/cholesterol/BSA/Tx MIC (uM); type: functional; settings: 168 h
[13] = tested on: Mycobacterium tuberculosis; assay: AntiMycobacterium tuberculosis activity day 21 MIC99 in 7H9/2.5mM butyrate/pH6/0.1mM nitrite MIC99 (uM); type: functional; settings: 504 h
[14] = tested on: Mycobacterium tuberculosis; assay: AntiMycobacterium tuberculosis activity 2-week 7H9/DPPC/cholesterol/BSA/Tx MIC (uM); type: functional; settings: 336 h
[15] = tested on: Mycobacterium tuberculosis; assay: AntiMycobacterium tuberculosis activity 1-week 7H9/glucose/BSA/Tx MIC (uM); type: functional; settings: 168 h
[16] = tested on: Mycobacterium tuberculosis; assay: as §1; type: functional; settings: 240 h; remark: listed apart in the source
[17] = tested on: HepG2; assay: HepG2 CC50 (uM) Cytotoxicity; type: functional; settings: Homo sapiens
[18] = tested on: Mycobacterium tuberculosis; assay: AntiMycobacterium tuberculosis activity 2-week GAST/Fe MIC (uM); type: functional; settings: 336 h
[19] = tested on: Mycobacterium tuberculosis; assay: AntiMycobacterium tuberculosis activity 1-week GAST/Fe MIC (uM); type: functional; settings: 168 h
[20] = tested on: Mycobacterium tuberculosis; assay: AntiMycobacterium tuberculosis activity Replicating form: Average MIC90 (uM); type: functional

Row | Structure (SMILES) | CC20 [1] | inhibition [2] | MIC [3] | MIC [4] | MIC [5] | MIC90 [6] | MIC90 [7] | MIC [8] | MIC [9] | MIC90 [10] | MIC [11] | MIC [12] | MIC [13] | MIC [14] | MIC [15] | MIC90 [16] | CC50 [17] | MIC [18] | MIC [19] | MIC90 [20]
1 | O=C(C1CCN(c2nnnn2-c2ccccc2)CC1)N1CCc2ccccc2C1 | >80 µM | inactive |  |  |  |  |  |  |  |  |  |  |  |  |  |  |  |  |  | 
2 | Cc1ccc2oc(-c3cc(NC(=O)Cc4ccccc4)ccc3Cl)nc2c1 |  |  | 25 µM (≈ 9.42 µg/mL) | 25 µM (≈ 9.42 µg/mL) | 25 µM (≈ 9.42 µg/mL) | > 50 µM | > 100 µM | 25 µM (≈ 9.42 µg/mL) | 25 µM (≈ 9.42 µg/mL) | > 50 µM | 25 µM (≈ 9.42 µg/mL) | 12.5 µM (≈ 4.71 µg/mL) | > 50 µM | 12.5 µM (≈ 4.71 µg/mL) | 25 µM (≈ 9.42 µg/mL) | > 50 µM | 83.6 µM | 9.4 µM (≈ 3.54 µg/mL) | 6.25 µM (≈ 2.36 µg/mL) | 3.58 µM (≈ 1.35 µg/mL)
3 | COc1ccc(-c2nc(-c3cccc(NC(=O)Cc4ccc(F)cc4)c3)no2)cc1OC |  |  | 0.39 µM (≈ 0.169 µg/mL) | 0.39 µM (≈ 0.169 µg/mL) | 0.6 µM (≈ 0.26 µg/mL) | 3.12 µM (≈ 1.35 µg/mL) | 1.61 µM (≈ 0.698 µg/mL) | 0.6 µM (≈ 0.26 µg/mL) | 0.3 µM (≈ 0.13 µg/mL) | 6.25 µM (≈ 2.71 µg/mL) | 0.2 µM (≈ 0.0867 µg/mL) | 0.78 µM (≈ 0.338 µg/mL) | 6.25 µM (≈ 2.71 µg/mL) | 0.78 µM (≈ 0.338 µg/mL) | 0.2 µM (≈ 0.0867 µg/mL) | 3.12 µM (≈ 1.35 µg/mL) | > 100 µM | 1.56 µM (≈ 0.676 µg/mL) | 1.56 µM (≈ 0.676 µg/mL) | 0.39 µM (≈ 0.169 µg/mL)
4 | Cc1cccc(Cn2ccc(NC(=O)c3ccc4c(c3)OCO4)n2)c1 |  |  | 25 µM (≈ 8.38 µg/mL) | 12.5 µM (≈ 4.19 µg/mL) | 9.4 µM (≈ 3.15 µg/mL) | 50 µM (≈ 16.8 µg/mL) | 10.4 µM (≈ 3.48 µg/mL) | 9.4 µM (≈ 3.15 µg/mL) | 9.4 µM (≈ 3.15 µg/mL) | 50 µM (≈ 16.8 µg/mL) | 25 µM (≈ 8.38 µg/mL) | 9.4 µM (≈ 3.15 µg/mL) | 50 µM (≈ 16.8 µg/mL) | 19 µM (≈ 6.37 µg/mL) | 12.5 µM (≈ 4.19 µg/mL) | 25 µM (≈ 8.38 µg/mL) | > 100 µM | 0.3 µM (≈ 0.101 µg/mL) | 0.2 µM (≈ 0.0671 µg/mL) | 22.6 µM (≈ 7.58 µg/mL)
5 | Nc1nc2cc(-c3cncc(Oc4ccc(F)cc4)c3)ccc2[nH]1 |  |  | 19 µM (≈ 6.09 µg/mL) | 19 µM (≈ 6.09 µg/mL) | 12.5 µM (≈ 4 µg/mL) | 25 µM (≈ 8.01 µg/mL) | 41.2 µM (≈ 13.2 µg/mL) | 12.5 µM (≈ 4 µg/mL) | 19 µM (≈ 6.09 µg/mL) | 6.25 µM (≈ 2 µg/mL) | 25 µM (≈ 8.01 µg/mL) | 12.5 µM (≈ 4 µg/mL) | 25 µM (≈ 8.01 µg/mL) | 19 µM (≈ 6.09 µg/mL) | 19 µM (≈ 6.09 µg/mL) | 6.25 µM (≈ 2 µg/mL) | 31.5 µM | 6.25 µM (≈ 2 µg/mL) | 6.25 µM (≈ 2 µg/mL) | 9.89 µM (≈ 3.17 µg/mL)
6 | COc1cccc(-n2nnnc2S(C)(=O)=O)c1 |  |  | 25 µM (≈ 6.36 µg/mL) | 25 µM (≈ 6.36 µg/mL) | 19 µM (≈ 4.83 µg/mL) | 6.25 µM (≈ 1.59 µg/mL) | 3.34 µM (≈ 0.849 µg/mL) | 50 µM (≈ 12.7 µg/mL) | 12.5 µM (≈ 3.18 µg/mL) | 12.5 µM (≈ 3.18 µg/mL) | 25 µM (≈ 6.36 µg/mL) | 12.5 µM (≈ 3.18 µg/mL) | 12.5 µM (≈ 3.18 µg/mL) | 50 µM (≈ 12.7 µg/mL) | 9.4 µM (≈ 2.39 µg/mL) | 6.25 µM (≈ 1.59 µg/mL) | 1.7 µM | 1.2 µM (≈ 0.305 µg/mL) | 0.78 µM (≈ 0.198 µg/mL) | 9.47 µM (≈ 2.41 µg/mL)
7 | O=C(NCc1ccco1)N1CCN(Cc2ccc(Cl)s2)CC1 |  |  | > 50 µM | 12.5 µM (≈ 4.25 µg/mL) | 37 µM (≈ 12.6 µg/mL) | > 50 µM | 90.2 µM (≈ 30.6 µg/mL) | 12.5 µM (≈ 4.25 µg/mL) | > 50 µM | > 50 µM | > 50 µM | 37 µM (≈ 12.6 µg/mL) | > 50 µM | 50 µM (≈ 17 µg/mL) | > 50 µM | 50 µM (≈ 17 µg/mL) | > 100 µM | 1.2 µM (≈ 0.408 µg/mL) | 0.6 µM (≈ 0.204 µg/mL) | > 100 µM
8 | CCOC(=O)c1cc(-c2csc(Nc3c(C)cc(C)cc3C)n2)on1 |  |  | 9.4 µM (≈ 3.36 µg/mL) | 6.25 µM (≈ 2.23 µg/mL) | 1.56 µM (≈ 0.558 µg/mL) | 6.25 µM (≈ 2.23 µg/mL) | 13.8 µM (≈ 4.94 µg/mL) | 3.13 µM (≈ 1.12 µg/mL) | 4.7 µM (≈ 1.68 µg/mL) | 6.25 µM (≈ 2.23 µg/mL) | 4.7 µM (≈ 1.68 µg/mL) | 3.13 µM (≈ 1.12 µg/mL) | 6.25 µM (≈ 2.23 µg/mL) | 6.25 µM (≈ 2.23 µg/mL) | 3.13 µM (≈ 1.12 µg/mL) | 3.1 µM (≈ 1.11 µg/mL) | 24.4 µM | 12.5 µM (≈ 4.47 µg/mL) | 12.5 µM (≈ 4.47 µg/mL) | 17.5 µM (≈ 6.26 µg/mL)
9 | O=C1O[C@@H](COc2ccon2)CN1c1cc(F)c(C2=CCN(Cc3ccccc3)CC2)c(F)c1 |  |  | 0.6 µM (≈ 0.28 µg/mL) | 0.39 µM (≈ 0.182 µg/mL) | 1.2 µM (≈ 0.561 µg/mL) | 25 µM (≈ 11.7 µg/mL) | 2.88 µM (≈ 1.35 µg/mL) | 0.6 µM (≈ 0.28 µg/mL) | 0.39 µM (≈ 0.182 µg/mL) | 6.25 µM (≈ 2.92 µg/mL) | 0.78 µM (≈ 0.365 µg/mL) | 1.56 µM (≈ 0.729 µg/mL) | 25 µM (≈ 11.7 µg/mL) | 1.56 µM (≈ 0.729 µg/mL) | 0.78 µM (≈ 0.365 µg/mL) | 6.25 µM (≈ 2.92 µg/mL) | 30.4 µM | 1.56 µM (≈ 0.729 µg/mL) | 0.78 µM (≈ 0.365 µg/mL) | 3.51 µM (≈ 1.64 µg/mL)
10 | N#Cc1nc(-c2ccccc2)oc1S(=O)(=O)c1ccc(Cl)cc1 |  |  | 6.25 µM (≈ 2.15 µg/mL) | 6.25 µM (≈ 2.15 µg/mL) | 6.25 µM (≈ 2.15 µg/mL) | > 50 µM | 0.41 µM (≈ 0.141 µg/mL) | 12.5 µM (≈ 4.31 µg/mL) | 3.13 µM (≈ 1.08 µg/mL) | 12.5 µM (≈ 4.31 µg/mL) | 6.25 µM (≈ 2.15 µg/mL) | 6.25 µM (≈ 2.15 µg/mL) | > 50 µM | 12.5 µM (≈ 4.31 µg/mL) | 3.13 µM (≈ 1.08 µg/mL) | 6.25 µM (≈ 2.15 µg/mL) | 2.2 µM | 0.6 µM (≈ 0.207 µg/mL) | 0.6 µM (≈ 0.207 µg/mL) | 2.59 µM (≈ 0.893 µg/mL)
